Experimental data: ChEMBL document CHEMBL4680155, “One-pot synthesis and molecular docking of some new spiropyranindol-2-one derivatives as immunomodulatory agents and in vitro antimicrobial potential with DNA gyrase inhibitor” (Eur J Med Chem, 2020)
Values after ≈ are worked out from the molar mass of the structure shown.

Legend:
[1] = test system: Enterococcus faecalis; experiment: Antibacterial activity against Enterococcus faecalis ATCC 29212 assessed as diameter of inhibition zone at 0.5 mg/ml incubated for 24 hrs by agar diffusion method; format: functional; conditions: read-out: DIZ
[2] = test system: Staphylococcus aureus; experiment: Antibacterial activity against Staphylococcus aureus ATCC 29213 assessed as diameter of inhibition zone at 0.5 mg/ml incubated for 24 hrs by agar diffusion method; format: functional; conditions: read-out: DIZ
[3] = test system: Escherichia coli; experiment: Antibacterial activity against Escherichia coli ATCC 25922 assessed as diameter of inhibition zone at 0.5 mg/ml incubated for 24 hrs by agar diffusion method; format: functional; conditions: read-out: DIZ
[4] = test system: Salmonella typhimurium; experiment: Antibacterial activity against Salmonella typhi ATCC 6539 assessed as diameter of inhibition zone at 0.5 mg/ml incubated for 24 hrs by agar diffusion method; format: functional, Salmonella enterica subsp. enterica serovar Typhimurium; conditions: Salmonella enterica, read-out: DIZ
[5] = test system: Candida albicans; experiment: Antifungal activity against Candida albicans ATCC 10231 assessed as diameter of inhibition zone at 0.5 mg/ml incubated for 24 hrs by agar diffusion method; format: functional; conditions: read-out: DIZ
[6] = test system: Aspergillus brasiliensis; experiment: Antifungal activity against Aspergillus brasiliensis ATCC 16404 assessed as diameter of inhibition zone at 0.5 mg/ml incubated for 72 hrs by agar diffusion method; format: functional; conditions: read-out: DIZ
[7] = test system: Enterococcus faecalis; experiment: Antibacterial activity against Enterococcus faecalis ATCC 29212 assessed as reduction in bacterial growth incubated for 1 day by paper disk diffusion method; format: functional; conditions: ATCC 29212, 24 h
[8] = test system: Staphylococcus aureus; experiment: Antibacterial activity against Staphylococcus aureus ATCC 29213 assessed as reduction in bacterial growth incubated for 1 day by paper disk diffusion method; format: functional; conditions: ATCC 29213, 24 h
[9] = test system: Escherichia coli; experiment: Antibacterial activity against Escherichia coli ATCC 25922 assessed as reduction in bacterial growth incubated for 1 day by paper disk diffusion method; format: functional; conditions: ATCC 25922, 24 h
[10] = test system: Salmonella typhimurium; experiment: Antibacterial activity against Salmonella typhi ATCC 6539 assessed as reduction in bacterial growth incubated for 1 day by paper disk diffusion method; format: functional, Salmonella enterica subsp. enterica serovar Typhimurium; conditions: Salmonella enterica, ATCC 6539, 24 h
[11] = test system: Candida albicans; experiment: Antifungal activity against Candida albicans ATCC 10231 assessed as reduction in bacterial growth incubated for 1 day by paper disk diffusion method; format: functional; conditions: ATCC 10231, 24 h
[12] = test system: Aspergillus brasiliensis; experiment: Antifungal activity against Aspergillus brasiliensis ATCC 16404 assessed as reduction in bacterial growth incubated for 3 days by paper disk diffusion method; format: functional; conditions: ATCC 16404, 72 h, time 3 day
[13] = test system: Enterococcus faecalis; experiment: Bactericidal activity against Enterococcus faecalis ATCC 29212 incubated for 24 hrs followed by transferring to freshly prepared broth medium and measured after 24 hrs by broth microdilution assay; format: functional; conditions: time 48 hrs
[14] = test system: Staphylococcus aureus; experiment: Bactericidal activity against Staphylococcus aureus ATCC 29213 incubated for 24 hrs followed by transferring to freshly prepared broth medium and measured after 24 hrs by broth microdilution assay; format: functional; conditions: time 48 hrs
[15] = test system: Escherichia coli; experiment: Bactericidal activity against Escherichia coli ATCC 25922 incubated for 24 hrs followed by transferring to freshly prepared broth medium and measured after 24 hrs by broth microdilution assay; format: functional; conditions: time 48 hrs
[16] = test system: Salmonella typhimurium; experiment: Bactericidal activity against Salmonella typhi ATCC 6539 incubated for 24 hrs followed by transferring to freshly prepared broth medium and measured after 24 hrs by broth microdilution assay; format: functional, Salmonella enterica subsp. enterica serovar […]; conditions: Salmonella enterica, time 48 hrs
[17] = test system: Candida albicans; experiment: Fungicidal activity against Candida albicans ATCC 10231 incubated for 24 hrs followed by transferring to freshly prepared broth medium and measured after 24 hrs by broth microdilution assay; format: functional; conditions: time 48 hrs
[18] = test system: Aspergillus brasiliensis; experiment: Fungicidal activity against Aspergillus brasiliensis ATCC 16404 incubated for 72 hrs followed by transferring to freshly prepared broth medium and measured after 24 hrs by broth microdilution assay; format: functional; conditions: time 96 hrs
[19] = test system: Staphylococcus aureus; experiment: Antibacterial activity against multidrug resistant Staphylococcus aureus ATCC 43300 assessed as diameter of inhibition zone at 0.5 mg/ml incubated for 24 hrs by agar diffusion method; format: functional; conditions: read-out: DIZ
[20] = test system: Staphylococcus aureus; experiment: Antibacterial activity against multidrug resistant Staphylococcus aureus ATCC 33591 assessed as diameter of inhibition zone at 0.5 mg/ml incubated for 24 hrs by agar diffusion method; format: functional; conditions: read-out: DIZ
[21] = test system: Escherichia coli; experiment: Antibacterial activity against multidrug resistant Escherichia coli ATCC BAA-196 assessed as diameter of inhibition zone at 0.5 mg/ml incubated for 24 hrs by agar diffusion method; format: functional; conditions: read-out: DIZ
[22] = test system: Pseudomonas aeruginosa; experiment: Antibacterial activity against multidrug resistant Pseudomonas aeruginosa ATCC BAA-2111 assessed as diameter of inhibition zone at 0.5 mg/ml incubated for 24 hrs by agar diffusion method; format: functional; conditions: read-out: DIZ
[23] = test system: Staphylococcus aureus; experiment: Antibacterial activity against multidrug resistant Staphylococcus aureus ATCC 43300 assessed as reduction in bacterial growth incubated for 1 day by paper disk diffusion method; format: functional; conditions: ATCC 43300, 24 h
[24] = test system: Staphylococcus aureus; experiment: Antibacterial activity against multidrug resistant Staphylococcus aureus ATCC 33591 assessed as reduction in bacterial growth incubated for 1 day by paper disk diffusion method; format: functional; conditions: ATCC 33591, 24 h
[25] = test system: Escherichia coli; experiment: Antibacterial activity against multidrug resistant Escherichia coli ATCC BAA-196 assessed as reduction in bacterial growth incubated for 1 day by paper disk diffusion method; format: functional; conditions: ATCC BAA-196, 24 h
[26] = test system: Pseudomonas aeruginosa; experiment: Antibacterial activity against multidrug resistant Pseudomonas aeruginosa ATCC BAA-2111 assessed as reduction in bacterial growth incubated for 1 day by paper disk diffusion method; format: functional; conditions: ATCC BAA-2111, 24 h
[27] = test system: Staphylococcus aureus; experiment: Bactericidal activity against Staphylococcus aureus ATCC 43300 incubated for 24 hrs followed by transferring to freshly prepared broth medium and measured after 24 hrs by broth microdilution assay; format: functional; conditions: time 48 hrs
[28] = test system: Staphylococcus aureus; experiment: Bactericidal activity against Staphylococcus aureus ATCC 33591 incubated for 24 hrs followed by transferring to freshly prepared broth medium and measured after 24 hrs by broth microdilution assay; format: functional; conditions: time 48 hrs
[29] = test system: Escherichia coli; experiment: Bactericidal activity against Escherichia coli ATCC BAA-196 incubated for 24 hrs followed by transferring to freshly prepared broth medium and measured after 24 hrs by broth microdilution assay; format: functional; conditions: time 48 hrs
[30] = test system: Pseudomonas aeruginosa; experiment: Bactericidal activity against Pseudomonas aeruginosa ATCC BAA-2111 incubated for 24 hrs followed by transferring to freshly prepared broth medium and measured after 24 hrs by broth microdilution assay; format: functional; conditions: time 48 hrs
[31] = test system: Neutrophil; experiment: Immunomodulatory activity in human neutrophils infected with bacteria assessed as increase in bacterial killing by measuring reduced NBT incubated for 30 mins by NBT dye based spectrophotometry; format: functional; parameters: concentration or dose not given beside the values; conditions: 0.5 h
[32] = target: DNA gyrase (Staphylococcus aureus, UniProt P0A0K8+P20831); experiment: Inhibition of Staphylococcus aureus DNA gyrase using relaxed pBR322 DNA as substrate incubated for 45 mins by agarose gel electrophoresis method; format: protein-complex assay
Chain of DNA gyrase (P0A0K8 whole entry): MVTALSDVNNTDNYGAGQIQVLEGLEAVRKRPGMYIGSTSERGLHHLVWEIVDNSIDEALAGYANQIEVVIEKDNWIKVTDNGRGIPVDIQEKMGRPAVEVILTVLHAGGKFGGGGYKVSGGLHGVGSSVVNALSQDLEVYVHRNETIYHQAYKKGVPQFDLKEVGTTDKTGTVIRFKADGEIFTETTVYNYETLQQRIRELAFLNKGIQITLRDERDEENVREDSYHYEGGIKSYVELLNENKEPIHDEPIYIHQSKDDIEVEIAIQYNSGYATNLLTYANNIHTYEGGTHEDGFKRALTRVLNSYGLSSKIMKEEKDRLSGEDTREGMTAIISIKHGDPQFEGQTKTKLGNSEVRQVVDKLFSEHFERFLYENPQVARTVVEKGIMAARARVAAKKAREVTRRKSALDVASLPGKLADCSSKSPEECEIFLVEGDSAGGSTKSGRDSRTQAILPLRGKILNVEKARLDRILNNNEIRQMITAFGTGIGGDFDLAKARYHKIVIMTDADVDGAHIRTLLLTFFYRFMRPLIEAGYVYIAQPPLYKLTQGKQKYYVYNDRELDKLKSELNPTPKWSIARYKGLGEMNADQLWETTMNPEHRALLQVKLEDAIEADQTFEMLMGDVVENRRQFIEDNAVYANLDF
Chain of DNA gyrase (P20831 whole entry): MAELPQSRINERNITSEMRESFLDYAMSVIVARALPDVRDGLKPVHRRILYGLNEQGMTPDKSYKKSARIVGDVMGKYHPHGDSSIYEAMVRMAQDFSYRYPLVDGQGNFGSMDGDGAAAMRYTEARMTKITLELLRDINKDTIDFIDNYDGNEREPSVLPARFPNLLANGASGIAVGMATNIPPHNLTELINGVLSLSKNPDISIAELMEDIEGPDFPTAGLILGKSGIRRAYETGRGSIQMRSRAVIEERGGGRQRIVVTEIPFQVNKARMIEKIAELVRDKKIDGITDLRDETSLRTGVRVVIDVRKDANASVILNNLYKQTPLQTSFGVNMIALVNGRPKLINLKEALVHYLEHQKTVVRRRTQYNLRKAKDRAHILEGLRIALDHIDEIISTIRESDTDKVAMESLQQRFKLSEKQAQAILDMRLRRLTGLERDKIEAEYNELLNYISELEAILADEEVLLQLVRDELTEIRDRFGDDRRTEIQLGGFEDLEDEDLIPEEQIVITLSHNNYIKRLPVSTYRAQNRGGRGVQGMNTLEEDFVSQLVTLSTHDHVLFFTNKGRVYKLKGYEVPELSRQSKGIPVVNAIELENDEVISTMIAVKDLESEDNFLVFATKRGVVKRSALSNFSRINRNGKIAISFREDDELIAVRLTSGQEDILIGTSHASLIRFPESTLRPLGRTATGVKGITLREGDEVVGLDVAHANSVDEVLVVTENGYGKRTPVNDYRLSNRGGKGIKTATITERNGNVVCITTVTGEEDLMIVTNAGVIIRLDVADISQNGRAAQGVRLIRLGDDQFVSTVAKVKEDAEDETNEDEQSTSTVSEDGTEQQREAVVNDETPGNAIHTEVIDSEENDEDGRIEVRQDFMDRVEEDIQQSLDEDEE

Compound | zone of inhibition at 500 µg/mL [1] [mm] | zone of inhibition at 500 µg/mL [2] [mm] | zone of inhibition at 500 µg/mL [3] [mm] | zone of inhibition at 500 µg/mL [4] [mm] | zone of inhibition at 500 µg/mL [5] [mm] | zone of inhibition at 500 µg/mL [6] [mm] | MIC [7] [µg/mL] | MIC [8] [µg/mL] | MIC [9] [µg/mL] | MIC [10] [µg/mL] | MIC [11] [µg/mL] | MIC [12] [µg/mL] | MBC [13] [µg/mL] | MBC [14] [µg/mL] | MBC [15] [µg/mL] | MBC [16] [µg/mL] | MFC [17] [µg/mL] | MFC [18] [µg/mL] | zone of inhibition at 500 µg/mL [19] [mm] | zone of inhibition at 500 µg/mL [20] [mm] | other results
CCOC(=O)C1=C(c2ccccc2)OC(N)=C(C#N)C12C(=O)Nc1ccc(S(=O)(=O)N3CCCCC3)cc12 (centres undefined) | 24 | 21 | 23 | 24 | 22 | 20 | 15.6 (≈ 29.2 µM) | 71.1 (≈ 133 µM) | 15.6 (≈ 29.2 µM) | 15.6 (≈ 29.2 µM) | 12.5 (≈ 23.4 µM) | 62.5 (≈ 117 µM) | 31.2 (≈ 58.4 µM) | 99.5 (≈ 186 µM) | 21.9 (≈ 40.9 µM) | 20.3 (≈ 38 µM) | 25 (≈ 46.8 µM) | 125 (≈ 234 µM) | 24 | 25 | zone of inhibition at 500 µg/mL [21]: 26 mm; zone of inhibition at 500 µg/mL [22]: 24 mm; MIC [23]: 1.95 µg/mL (≈ 3.65 µM); MIC [24]: 1.95 µg/mL (≈ 3.65 µM); MIC [25]: 1.57 µg/mL (≈ 2.94 µM); MIC [26]: 3.9 µg/mL (≈ 7.3 µM); MBC [27]: 2.92 µg/mL (≈ 5.46 µM); MBC [28]: 3.31 µg/mL (≈ 6.19 µM); MBC [29]: 2.35 µg/mL (≈ 4.4 µM); MBC [30]: 6.24 µg/mL (≈ 11.7 µM); Activity [31]: 95.4%; IC50 [32]: 19.8 µM
CC(=O)C1=C(c2ccccc2)OC(N)=C(C#N)C12C(=O)Nc1ccc(S(=O)(=O)N3CCCCC3)cc12 (centres undefined) | 23 | 24 | 22 | 22 | 23 | 19 | 31.5 (≈ 62.4 µM) | 35.5 (≈ 70.5 µM) | 17.8 (≈ 35.2 µM) | 62.5 (≈ 124 µM) | 15.6 (≈ 31 µM) | 88.3 (≈ 175 µM) | 43.7 (≈ 86.7 µM) | 58.6 (≈ 116 µM) | 28.4 (≈ 56.3 µM) | 87.5 (≈ 173 µM) | 31.2 (≈ 61.9 µM) | 150 (≈ 298 µM) | 25 | 26 | zone of inhibition at 500 µg/mL [21]: 27 mm; zone of inhibition at 500 µg/mL [22]: 25 mm; MIC [23]: 0.97 µg/mL (≈ 1.92 µM); MIC [24]: 0.78 µg/mL (≈ 1.55 µM); MIC [25]: 0.97 µg/mL (≈ 1.92 µM); MIC [26]: 1.95 µg/mL (≈ 3.86 µM); MBC [27]: 1.94 µg/mL (≈ 3.84 µM); MBC [28]: 1.56 µg/mL (≈ 3.09 µM); MBC [29]: 1.55 µg/mL (≈ 3.07 µM); MBC [30]: 3.9 µg/mL (≈ 7.73 µM); Activity [31]: 972%; IC50 [32]: 18.1 µM
